Where “and” joins values, the source holds several entries; their conditions need not be identical. Equal values may be shown once.
How the values were obtained:
[1] = test system: thermostable luciferase (Luc 146-1H2); assay: Residual thermostable luciferase activity after reaction with luciferin derivatives (Steady Glo); format: biochemical; details: Substrate 100
Protocol: This stock was used to produce enzyme stock solution having of 200 µg/ml enzyme solution in 1 mg/ml BSA, 200 mM HEPES buffer, pH 8.0, 20 mM MgCl2.
Solutions were made using a 1 M DTT solution, pH adjusted to 8.0, a 20 mM Coenzyme A solution in water (both described in examples above), a 100 mM ATP solution and water to create the following solutions: Sol'A, 100 µM ATP; Sol'B, 100 µM ATP, 4 mM Coenzyme A; Sol'n C, 100 µM ATP, 400 mM DTT, and; Sol'n D, 100 µM ATP, 4 mM Coenzyme A and 400 mM DTT.
After assembly, the reactions were initiated by addition of 25 µl of the thermostable luciferase stock solution above and mixing the tube contents. A 50 µl sample was immediately removed and placed in a luminometer tube and the light read and the tube then replaced in a tube rack at room temperature. While the light reading was being taken, a 5 µl sample of the remaining reaction (which was kept at room temperature) was diluted into 495 µl of 50 mM BisTris, pH 6.5, 1 mg/ml BSA, 1 mM EDTA prechilled to 4°C and the tube mixed and placed on ice. The light produced by the samples in the luminometer tubes were re-read at 20, 40, 60, 90 and 120 minutes post enzyme addition. Additional 5 µl samples were taken and diluted as above at 60 and 120 minutes post enzyme addition. Once all these readings and samples were taken, 50 µl of the diluted samples was mixed with 50 µl of Steady Glo in luminometer tubes, the tubes incubated 10 minutes on ice then the light produced was read on a Turner TD 20/20 luminometer.

luciferase = assay: No-enzyme control: activity of luciferase towards the luciferin derivative (background luminescence)
Protocol: The reactions (Table 1) were assembled by first adding the water and 1 M BisTris solutions in individual 0.5 ml microfuge tubes, then adding the other components except for the GST #3 solution. Finally, the GST #3 (Figure 12) solution was added to the reactions, the resulting solution was mixed, and the time of addition noted. […]
The GST #3 addition was performed last and the solutions were mixed immediately after addition of GST #3. […] After mixing, the light produced by the solution was measured using a Turner TD 20/20 luminometer.
After assembly, the enzyme stock solutions were diluted 1:10 into 10 mM HEPES, pH 7.5 and the following additions were made to the reactions.
A 5 µl sample of the luciferol DMF solution was added to each of the reactions above and a timer was started upon the addition of the first luciferol/DMF solution to reaction 1. All reactions were kept at room temperature.
After incubating 5 minutes at room temperature, the light produced by these samples was measured using a Turner TD 20 luminometer.
To initiate the conversions, 5 µl of luciferol solution was added to reactions […], 6-9, and 11-15, and 10 µl of luciferol was added to reactions 5 and 10 and the tubes mixed after that addition. Immediately after luciferol addition to reaction 1, a timer was started and the time of luciferol addition to the other tubes noted. After mixing, reaction 11-15 were placed at 37°C.
After incubating 10 minutes at room temperature, the light produced by these samples was read using a Turner TD 20 luminometer (Table 18).
To initiate Step 1, 45 µl of enzyme and buffer were added to each well.
Solution A and Solution B are components of the NADPH Regeneration System (V9510, Promega Corp., Madison WI). […] Solution B contains 40 units/ml glucose-6-phosphate dehydrogenase in 5 mM citrate pH 5.5.

SMILES	light values obtained upon addition of the diluted reaction samples into Steady Glo reagent ([1]; + Co A & DTT, Time Sample Taken 0 min)	light values obtained upon addition of the diluted reaction samples into Steady Glo reagent ([1]; + Co A & DTT, Time Sample Taken 60 min)	light values obtained upon addition of the diluted reaction samples into Steady Glo reagent ([1]; + Co A & DTT, Time Sample Taken 120 min)	light values obtained upon addition of the diluted reaction samples into Steady Glo reagent ([1]; + Co A, Time Sample Taken 0 min)	light values obtained upon addition of the diluted reaction samples into Steady Glo reagent ([1]; + Co A, Time Sample Taken 60 min)	light values obtained upon addition of the diluted reaction samples into Steady Glo reagent ([1]; + Co A, Time Sample Taken 120 min)	light values obtained upon addition of the diluted reaction samples into Steady Glo reagent ([1]; + DTT, Time Sample Taken 0 min)	light values obtained upon addition of the diluted reaction samples into Steady Glo reagent ([1]; + DTT, Time Sample Taken 60 min)	light values obtained upon addition of the diluted reaction samples into Steady Glo reagent ([1]; + DTT, Time Sample Taken 120 min)	light values obtained upon addition of the diluted reaction samples into Steady Glo reagent ([1]; Alone, Time Sample Taken 0 min)	light values obtained upon addition of the diluted reaction samples into Steady Glo reagent ([1]; Alone, Time Sample Taken 60 min)	light values obtained upon addition of the diluted reaction samples into Steady Glo reagent ([1]; Alone, Time Sample Taken 120 min)	light produced (luciferase; Table 18 Rx 1: no enzyme, KPO4 pH 7.4, room temperature, 30/60/95/190/280 minutes)	light produced (luciferase; Table 18 Rx 11: no enzyme, 37°C, time)
O=C(O)[C@H]1CSC(c2nc3ccc(OCCCl)cc3s2)=N1 [L' in-CEE]	1745	1319	1343	1127	1055	770.5	1168	501.5	1478	1262	1203	1273		
OC[C@H]1CSC(c2nc3ccc(O)cc3s2)=N1 [luciferol]													6.077 and 6.091 and 5.849 and 4.364 and 7.694	5.814 and 6.078 and 6.302 and 6.889 and 8.399
